For 16 compounds, IC50 and viability results are on record in ChEMBL document CHEMBL3397021, “Synthesis and biological evaluation of 3-([1,2,4]triazolo[4,3-a]pyridin-3-yl)-4-(indol-3-yl)-maleimides as potent, selective GSK-3β inhibitors and neuroprotective agents” (Bioorg Med Chem, 2015).

The target of experiment [1] is Glycogen synthase kinase-3 beta (Homo sapiens, UniProt P49841).
Description: Inhibition of recombinant GST-tagged GSK-3beta (unknown origin) expressed in Escherichia coli strain BL21-Codon Plus (DE3) using Ser/Thr 9 peptide substrate by Z'-LYTE kinase assay
Experiment [2] in a line: Neuroprotective activity against glutamate-induced neurotoxicity in Sprague-Dawley rat primary cerebellar granule neurons assessed as cell viability at 10 uM pre-incubated for 24 hrs before glutamate stimulation for 24 hrs by MTT assay. It is filed as functional. The conditions noted are these: Neuron, read-out: Activity. On the technique in general: Formazan colour is commonly taken as a measure of viable cells.

Glycogen synthase kinase-3 beta, sequence (P49841 whole entry): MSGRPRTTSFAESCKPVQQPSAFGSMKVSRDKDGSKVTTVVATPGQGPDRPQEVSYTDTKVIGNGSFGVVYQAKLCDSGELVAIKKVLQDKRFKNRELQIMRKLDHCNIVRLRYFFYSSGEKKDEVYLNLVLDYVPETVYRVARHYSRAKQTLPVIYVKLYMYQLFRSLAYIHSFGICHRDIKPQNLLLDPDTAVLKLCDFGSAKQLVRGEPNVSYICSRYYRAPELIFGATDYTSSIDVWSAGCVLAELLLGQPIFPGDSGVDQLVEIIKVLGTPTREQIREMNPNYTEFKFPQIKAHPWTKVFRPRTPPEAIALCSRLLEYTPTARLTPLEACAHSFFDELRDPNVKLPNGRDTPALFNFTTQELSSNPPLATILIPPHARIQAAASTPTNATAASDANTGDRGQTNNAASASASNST

The IC50 is the concentration that gives 50% inhibition. `O=C1NC(=O)C(c2nnc3ccccn23)=C1c1c[nH]c2ccccc12` returned an IC50 in experiment [1] of 0.477 µM.

Consider `Cn1cc(C2=C(c3nnc4ccccn34)C(=O)NC2=O)c2ccccc21`, for which, in experiment [2], the viability at 10 µM came to 83.6%. This compound gave an IC50 in experiment [1] of 0.154 µM.

Take `Cc1cccc2c(C3=C(c4nnc5ccccn45)C(=O)NC3=O)cn(C)c12`: the viability at 10 µM in experiment [2] amounted to 94.3%. In experiment [1], the IC50 worked out at 0.105 µM.

As for `Cn1cc(C2=C(c3nnc4ccccn34)C(=O)NC2=O)c2cc(F)ccc21`, the viability at 10 µM in experiment [2] is 71.6%. In addition, the IC50 in experiment [1] came to 0.188 µM.

Consider `Cn1cc(C2=C(c3nnc4ccccn34)C(=O)NC2=O)c2ccc(F)cc21`, for which, in experiment [2], the viability at 10 µM was 59.7%. This compound came in with an IC50 in experiment [1] of 0.204 µM.

With `Cn1cc(C2=C(c3nnc4ccccn34)C(=O)NC2=O)c2cc(Cl)ccc21`, the viability at 10 µM in experiment [2] is 95.1%. Moreover, 0.0741 µM corresponded to half-maximal inhibition in experiment [1] (IC50).

As to `Cn1cc(C2=C(c3nnc4ccccn34)C(=O)NC2=O)c2ccc(Cl)cc21`, in experiment [2], the viability at 10 µM was 55.7%. In experiment [1], the IC50 worked out at 0.159 µM.

With `Cn1cc(C2=C(c3nnc4ccccn34)C(=O)NC2=O)c2cc(Br)ccc21`, the viability at 10 µM in experiment [2] came out at 93.5%. For the same compound, the IC50 in experiment [1] was found to be 0.0635 µM.

In turn, `Cn1cc(C2=C(c3nnc4ccccn34)C(=O)NC2=O)c2ccc(Br)cc21` came in with an IC50 in experiment [1] of 0.327 µM.

In experiment [1], `COc1ccc2c(c1)c(C1=C(c3nnc4ccccn34)C(=O)NC1=O)cn2C` registered an IC50 of 0.942 µM.

Compound `C=CCn1cc(C2=C(c3nnc4ccccn34)C(=O)NC2=O)c2ccccc21` came in with an IC50 in experiment [1] of 0.0736 µM.

As for `CCCCn1cc(C2=C(c3nnc4ccccn34)C(=O)NC2=O)c2ccccc21`, in experiment [2], the viability at 10 µM was found to be 93.2%. In experiment [1], this compound registered an IC50 of 0.0697 µM.

As for `CC(C)n1cc(C2=C(c3nnc4ccccn34)C(=O)NC2=O)c2ccccc21`, the viability at 10 µM in experiment [2] amounted to 94.4%. Besides, in experiment [1], the IC50 was found to be 0.013 µM.

In the case of `O=C1NC(=O)C(c2nnc3ccccn23)=C1c1cn(CCCn2ccnc2)c2ccccc12`, the viability at 10 µM in experiment [2] turned out to be 60.6%. Besides, half-maximal inhibition in experiment [1] (IC50) required 0.036 µM.

For `O=C1NC(=O)C(c2nnc3ccccn23)=C1c1cn(CCCO)c2ccccc12`, the IC50 in experiment [1] was determined as 0.121 µM.

In experiment [1], `O=C1NC(=O)C(c2nnc3ccccn23)=C1c1cn(CCCN2CCOCC2)c2ccccc12` displayed an IC50 of 0.2 µM.
